Read-outs that look alike come from different tables or passages of the source.
Columns and labels:
[1] = tested on: cell line intrinsically expressing an EML4-ALK fusion gene; conditions: Clin. Cancer Res. 2008; 4275-4283; cited from earlier work
[2] = tested on: FGFR3-TACC3_v1 (N-FLAG) fusion polypeptide; experiment: In vitro kinase activity of FGFR3-TACC3_v1 (N-FLAG) fusion polypeptide (HTRF KinEASE-TK, peptide substrate); assay type: biochemical, human; conditions: ATP 100 μM
[3] = tested on: FGFR3-TACC3_v2 (N-FLAG) fusion polypeptide; experiment: In vitro kinase activity of FGFR3-TACC3_v2 (N-FLAG) fusion polypeptide (HTRF KinEASE-TK, peptide substrate); assay type: biochemical, human; conditions: ATP 100 μM
[4] = tested on: FGFR3-TACC3_v3 (N-FLAG) fusion polypeptide; experiment: In vitro kinase activity of FGFR3-TACC3_v3 (N-FLAG) fusion polypeptide (HTRF KinEASE-TK, peptide substrate); assay type: biochemical, human; conditions: ATP 100 μM
RT-112 cells = experiment: Anchorage-independent proliferation of RT-112 bladder cancer cell line, spheroid plate, CellTiter-Glo; assay type: cell-based; conditions: Homo sapiens
Procedure: Moreover, as a positive control, a well added only with the medium was prepared. […] As a negative control, DMSO as a vehicle of the compound was added thereto at the same concentration (0.1%) at the time of adding the compound. Thereafter, the cells were cultured for 5 days at 37° C. in the presence of 5% CO2, and a reagent for cell count measurement (CellTiter-Glo™ Luminescent Cell Viability Assay; Promega Corporation) was added thereto. The resultant was stirred for 20 minutes, and the cell count was measured using a luminometer.
(§1) Moreover, the respective compounds were added such that the final concentration thereof became 100 nM, 10 nM, and 1 nM.

[5] = tested on: FGFR3-TACC3_v1 expression/NIH3T3 cells; experiment: Anchorage-independent cell proliferation, spheroid plate, CellTiter-Glo; conditions: Mus musculus, NIH3T3, 96 h, read-out: growth inhibition rate (%), v1
Procedure: (§2) The FGFR3-TACC3_v1 expression/NIH3T3 cells were seeded in a 96-well spheroid plate (Sumilon Cell-Tight Spheroid 96U; SUMITOMO BAKELITE CO., LTD.) with D-MEM containing 10% fetal bovine serum, such that the cell count in each well became 1×10^3. Moreover, as a positive control, a well added only with the medium was prepared. […] As a negative control, DMSO as a vehicle of the compound was added thereto at the same concentration (0.1%) as set at the time of adding the compound. Thereafter, the cells were cultured for 4 days at 37° C. in the presence of 5% CO2, and a reagent for cell count measurement (CellTiter-Glo™ Luminescent Cell Viability Assay; Promega Corporation) was added thereto. The resultant was stirred for 20 minutes, and the cell count was measured using a luminometer.
as §1

[6] = tested on: FGFR3-TACC3_v2 expression/NIH3T3 cells; experiment: as above; conditions: Mus musculus, NIH3T3, 96 h, read-out: growth inhibition rate (%), v2
Procedure: as §2, §1

[7] = tested on: FGFR3-TACC3_v3 expression/NIH3T3 cells; experiment: as above; conditions: Mus musculus, NIH3T3, 96 h, read-out: growth inhibition rate (%), v3
Procedure: as §2, §1

[8] = tested on: cells expressing FGFR3-TACC3 fusion gene; conditions: reported in Science 2012; 337:1231-5; cited from earlier work
[9] = RT-112, final concentration 1 nM, Example 30: 1×10^3 cells per well, RPMI1640 with 2 mM L-glutamine, otherwise as Example 9, read-out: growth inhibition rate (%), RT-112
[10] = RT-112, final concentration 10 nM, Example 30: 1×10^3 cells per well, RPMI1640 with 2 mM L-glutamine, otherwise as Example 9, read-out: growth inhibition rate (%), RT-112
[11] = RT-112, final concentration 100 nM, Example 30: 1×10^3 cells per well, RPMI1640 with 2 mM L-glutamine, otherwise as Example 9, read-out: growth inhibition rate (%), RT-112
[12] = RT-112, read-out: growth inhibition rate (%), RT-112

## COc1cc(N2CCC(N3CCN(C)CC3)CC2)ccc1Nc1ncc(Cl)c(Nc2ccccc2S(=O)(=O)C(C)C)n1 [TAE684]
[1]
  growth of the cell: growth of the cell is inhibited
  phosphorylation of ALK: phosphorylation is inhibited

## COc1cc(OC)c(F)c(COc2cnc(Nc3cc(CN4CCN(C)CC4)n(C)n3)nc2)c1F [Compound E, 5-[(2,6-difluoro-3,5-dimethoxybenzyl)oxy]-N-{1-methyl-5-[(4-methylpiperazin-1-yl)methyl]-1H-pyrazol-3-yl}pyrimidin-2-amine]
[2]; final concentration 1 nM
  Inhibition against peptide substrate FGFR3-TACC3 v1: 7%
[2]; final concentration 10 nM
  Inhibition against peptide substrate FGFR3-TACC3 v1: 40%
[2]; final concentration 100 nM
  Inhibition against peptide substrate FGFR3-TACC3 v1: 86%
[3]; final concentration 1 nM
  Inhibition against peptide substrate FGFR3-TACC3 v2: 6%
[3]; final concentration 10 nM
  Inhibition against peptide substrate FGFR3-TACC3 v2: 25%
[3]; final concentration 100 nM
  Inhibition against peptide substrate FGFR3-TACC3 v2: 78%
[4]; final concentration 1 nM
  Inhibition against peptide substrate FGFR3-TACC3 v3: 30%
[4]; final concentration 10 nM
  Inhibition against peptide substrate FGFR3-TACC3 v3: 55%
[4]; final concentration 100 nM
  Inhibition against peptide substrate FGFR3-TACC3 v3: 91%
RT-112 cells; [9]
  inhibition at 0.001 µM: 5%
RT-112 cells; [10]
  inhibition at 0.01 µM: 33%
RT-112 cells; [11]
  inhibition at 0.1 µM: 81%
[5]
  inhibition at 0.001 µM: 7%
  inhibition at 0.01 µM: 28%
  inhibition at 0.1 µM: 84%
[6]
  inhibition at 0.001 µM: 11%
  inhibition at 0.01 µM: 29%
  inhibition at 0.1 µM: 79%
[7]
  inhibition at 0.001 µM: 6%
  inhibition at 0.01 µM: 20%
  inhibition at 0.1 µM: 81%

## COc1cc(OC)c(F)c(COc2cnc(Nc3ccc(N4CCN(C)CC4)cc3)nc2)c1F [Compound D, 5-[(2,6-difluoro-3,5-dimethoxybenzyl)oxy]-N-[4-(4-methylpiperazin-1-yl)phenyl]pyrimidin-2-amine]
[2]; final concentration 1 nM
  Inhibition against peptide substrate FGFR3-TACC3 v1: 34%
[2]; final concentration 10 nM
  Inhibition against peptide substrate FGFR3-TACC3 v1: 80%
[2]; final concentration 100 nM
  Inhibition against peptide substrate FGFR3-TACC3 v1: 94%
[3]; final concentration 1 nM
  Inhibition against peptide substrate FGFR3-TACC3 v2: 27%
[3]; final concentration 10 nM
  Inhibition against peptide substrate FGFR3-TACC3 v2: 80%
[3]; final concentration 100 nM
  Inhibition against peptide substrate FGFR3-TACC3 v2: 95%
[4]; final concentration 1 nM
  Inhibition against peptide substrate FGFR3-TACC3 v3: 45%
[4]; final concentration 10 nM
  Inhibition against peptide substrate FGFR3-TACC3 v3: 85%
[4]; final concentration 100 nM
  Inhibition against peptide substrate FGFR3-TACC3 v3: 97%
RT-112 cells; [9]
  inhibition at 0.001 µM: 23%
RT-112 cells; [10]
  inhibition at 0.01 µM: 80%
RT-112 cells; [11]
  inhibition at 0.1 µM: 89%
[5]
  inhibition at 0.001 µM: 26%
  inhibition at 0.01 µM: 84%
  inhibition at 0.1 µM: 90%
[6]
  inhibition at 0.001 µM: 23%
  inhibition at 0.01 µM: 79%
  inhibition at 0.1 µM: 88%
[7]
  inhibition at 0.001 µM: 25%
  inhibition at 0.01 µM: 79%
  inhibition at 0.1 µM: 89%

## COc1cc(Nc2ncc(OCc3c(F)c(OC)cc(OC)c3F)cn2)ccc1N1CCC(N2CCN(C)CC2)CC1 [Compound A, 5-[(2,6-difluoro-3,5-dimethoxybenzyl)oxy]-N-{3-methoxy-4-[4-(4-methylpiperazin-1-yl)piperidin-1-yl]phenyl}pyrimidin-2-amine]
RT-112 cells; [12]
  inhibition at 0.001 µM: 29%
  inhibition at 0.01 µM: 83%
  inhibition at 0.1 µM: 90%

## CN1CCN(c2ccc3nc(-c4c(N)c5c(F)cccc5[nH]c4=O)[nH]c3c2)CC1 [Dovitinib, 4-amino-5-fluoro-3-[6-(4-methylpiperazin-1-yl)-1H-benzo[d]imidazol-2-yl]quinoline-2(1H)-one, reference compound]
RT-112 cells; RT-112, 120 h, final concentration 100 nM, Example 16: 2×10^3 cells per well, 5 days, read-out: growth inhibition rate (%), RT-112
  inhibition at 0.1 µM: 80%

## COc1cc(OC)c(F)c(COc2cnc(Nc3cnn(C[C@@H](O)CO)c3)nc2)c1F [Compound C, (2R)-3-[4-({5-[(2,6-difluoro-3,5-dimethoxybenzyl)oxy]pyrimidin-2-yl}amino)-1H-pyrazol-1-yl]propane-1,2-diol]
[2]; final concentration 10 nM
  Inhibition against peptide substrate FGFR3-TACC3 v1: 79%
[2]; final concentration 100 nM
  Inhibition against peptide substrate FGFR3-TACC3 v1: 95%
[3]; final concentration 1 nM
  Inhibition against peptide substrate FGFR3-TACC3 v2: 22%
[3]; final concentration 10 nM
  Inhibition against peptide substrate FGFR3-TACC3 v2: 73%
[3]; final concentration 100 nM
  Inhibition against peptide substrate FGFR3-TACC3 v2: 95%
[4]; final concentration 1 nM
  Inhibition against peptide substrate FGFR3-TACC3 v3: 41%
[4]; final concentration 100 nM
  Inhibition against peptide substrate FGFR3-TACC3 v3: 96%
RT-112 cells; [9]
  inhibition at 0.001 µM: 21%
RT-112 cells; [10]
  inhibition at 0.01 µM: 72%
[5]
  inhibition at 0.001 µM: 5%
  inhibition at 0.01 µM: 44%
[6]
  inhibition at 0.001 µM: 0%
[7]
  inhibition at 0.001 µM: 3%
  inhibition at 0.01 µM: 24%

## CCN(CC)CCCCNc1ncc2cc(-c3cc(OC)cc(OC)c3)c(NC(=O)NC(C)(C)C)nc2n1 [PD173074]
[8]
  proliferation of cells expressing FGFR3-TACC3 fusion gene: inhibited the proliferation

## C[C@@H](Oc1ccc2[nH]nc(/C=C/c3cnn(CCO)c3)c2c1)c1c(Cl)cncc1Cl [LY2874455, (R)-(E)-2-{4-[2-{5-[1-(3,5-dichloropyridin-4-yl)ethoxy]-1H-indazol-3-yl}vinyl]-1H-pyrazol-1-yl}ethanol, reference compound]
[2]; final concentration 0.1 nM
  Inhibition against peptide substrate FGFR3-TACC3 v1: 12%
[2]; final concentration 1 nM
  Inhibition against peptide substrate FGFR3-TACC3 v1: 46%
[2]; final concentration 10 nM
  Inhibition against peptide substrate FGFR3-TACC3 v1: 77%
[3]; final concentration 0.1 nM
  Inhibition against peptide substrate FGFR3-TACC3 v2: 15%
[3]; final concentration 1 nM
  Inhibition against peptide substrate FGFR3-TACC3 v2: 64%
[3]; final concentration 10 nM
  Inhibition against peptide substrate FGFR3-TACC3 v2: 87%
[4]; final concentration 0.1 nM
  Inhibition against peptide substrate FGFR3-TACC3 v3: 3%
[4]; final concentration 1 nM
  Inhibition against peptide substrate FGFR3-TACC3 v3: 57%
[4]; final concentration 10 nM
  Inhibition against peptide substrate FGFR3-TACC3 v3: 83%
[5]
  inhibition at 0.01 µM: 88%
[6]
  inhibition at 0.01 µM: 90%
[7]
  inhibition at 0.01 µM: 89%

Source: patent US10004739B2, “Methods for treating cancer by inhibiting FGFR3/TACC3 fusion protein” (Astellas Pharma Inc., priority 2012, dated 2018)
